Assay results taken from patent US20170354639A1, “DITERPENOID DERIVATIVES AND METHODS OF USE THEREOF” (Biogen MA Inc., priority 2014, published 2017).

Target: Nrf2-Keap1 (Homo sapiens, UniProt Q14145)
Test: DiscoveRx PathHunter Nrf2-Keap1 nuclear translocation functional assay (agonist format)
Type: cell-based
Details: in duplicate, agonist mode; for EC50: 10 concentrations, 3-fold serial dilutions, 30 μM top concentration, normalized to CDDO methyl ester and vehicle
Procedure: DiscoveRx PathHunter® Nrf2-Keap1 Functional Assay
DiscoveRx's Nrf2-Keapl translocation assay was used to profile compounds. Primary Screening was performed in duplicate at a single concentration of 10 μM and EC50 determinations were performed in duplicate at 10 concentrations with 3-fold serial dilutions at a 30 μM top concentration or an otherwise specified top concentration.
The PathHunter® Nuclear Translocation assay detects translocation of a target protein to, or from, the nucleus. In this system, Prolink™ (PK), a small enzyme fragment, is fused to the protein of interest and Enzyme Acceptor (EA) is localized in the nucleus. Activation of the signaling pathway induces the target protein to either transit into the nucleus, thus forcing complementation of the PK and EA fragments, or out of the nucleus, hindering complementation of the fragments.
Cell handling: PathHunter Pathway cell lines were expanded from freezer stocks according to standard procedures. 5000 cells were seeded in Cell Plating Reagent 0 (containing 1% FBS) to a total volume of 20 μL into white walled, 384-well microplates and incubated for the overnight prior to testing.
Agonist format: For Agonist determination, cells were incubated with sample to induce response. Dilution of sample stocks was performed to generate 100× sample in DMSO. Intermediate dilution of sample stocks was performed to generate 5× sample in assay buffer (Cell Plating Reagent 0 containing 1% FBS). 5 μL of 5× sample was added to cells and incubated at room temperature for 6 hours. Vehicle concentration was 1%.
Signal detection: Assay signal was generated through a single addition of 25 μL (100% v/v) of PathHunter Flash Detection reagent, followed by a one hour incubation at room temperature. Microplates were read following signal generation with a PerkinElmer Envision™ instrument for chemiluminescent signal detection.
Data analysis: Compound activity was analyzed using CBIS data analysis suite (ChemInnovation, CA). For agonist mode assays, percentage activity was calculated using the following formula: % Activity=100%×(mean RLU of test sample−mean RLU of vehicle control)/(mean MAX RLU control ligand−mean RLU of vehicle control). For EC50 determination, a control agonist dose response curve was generated in the Keap 1-Nrf2 biosensor assay, data was normalized to the maximal and minimal response observed in the presence of the control ligand and vehicle respectively. CDDO methyl ester was used as a control compound. Compounds were tested in the agonist mode of the assay and data was normalized to the maximal and minimal response observed in the presence of control ligand and vehicle.

[1] = 6 h, single concentration of 10 μM, normalized to control ligand (CDDO methyl ester) and vehicle
[2] = single concentration of 10 μM, 6 hours, normalized to control ligand (CDDO methyl ester) and vehicle

Sequence of Nrf2-Keap1 (Q14145 whole entry): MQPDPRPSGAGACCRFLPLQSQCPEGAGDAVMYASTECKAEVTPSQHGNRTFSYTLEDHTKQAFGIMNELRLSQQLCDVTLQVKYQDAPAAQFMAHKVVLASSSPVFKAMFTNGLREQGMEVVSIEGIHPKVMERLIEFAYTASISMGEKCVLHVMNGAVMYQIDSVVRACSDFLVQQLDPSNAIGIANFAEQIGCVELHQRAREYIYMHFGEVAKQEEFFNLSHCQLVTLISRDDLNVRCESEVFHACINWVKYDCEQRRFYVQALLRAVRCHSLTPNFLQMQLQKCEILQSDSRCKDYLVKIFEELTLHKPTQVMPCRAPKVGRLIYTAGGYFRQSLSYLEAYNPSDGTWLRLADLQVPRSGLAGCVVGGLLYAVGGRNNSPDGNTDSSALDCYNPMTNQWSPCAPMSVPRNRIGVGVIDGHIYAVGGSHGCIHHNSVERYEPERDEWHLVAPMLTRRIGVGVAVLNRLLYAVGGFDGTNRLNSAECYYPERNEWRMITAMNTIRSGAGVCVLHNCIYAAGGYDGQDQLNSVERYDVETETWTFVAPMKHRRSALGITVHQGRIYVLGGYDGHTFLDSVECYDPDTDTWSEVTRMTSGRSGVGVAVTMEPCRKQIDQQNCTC

Row | Compound | EC50 [nM] | activation at 10 µM [1] [%] | further results
1 | CC1=CC[C@@H]2[C@@H](C)[C@](O)(C(F)(F)F)CC[C@@]2(C)[C@@H]1C/C=C1/C(=O)OC[C@H]1O [Example 47, (S,E)-4-hydroxy-3-(2-((1R,4aR,5R,6S,8aR)-6-hydroxy-2,5,8a-trimethyl-6-(trifluoromethyl)-1,4,4a,5,6,7,8,8a-octahydronaphthalen-1-yl)ethylidene)dihydrofuran-2(3H)-one] | > 2000 |  | 
2 | C=C1CC[C@@H]2[C@]3(C)COCO[C@@H]3CC[C@@]2(C)[C@@H]1C/C=C1/C(=O)OCC1NC(C)=O (single isomer, unassigned) [Example 45B] | > 2000 |  | 
3 | C=C1CC[C@@H]2[C@]3(C)COCO[C@@H]3CC[C@@]2(C)[C@@H]1C/C=C1/C(=O)OCC1NC(C)=O (single isomer, unassigned) [Example 45A] | > 2000 |  | 
4 | C=C1CC[C@@H]2[C@@H](C)[C@](O)(C(F)(F)F)CC[C@@]2(C)[C@@H]1C/C=C1/C(=O)OC[C@H]1O [Example 42A, (S,E)-4-hydroxy-3-(2-((1R,4aR,5R,6S,8aR)-6-hydroxy-5,8a-dimethyl-2-methylene-6-(trifluoromethyl)decahydronaphthalen-1-yl)ethylidene)dihydrofuran-2(3H)one] | < 500 |  | 
5 | C=C1CC[C@@H]2[C@]3(C)CO[S@@](=O)O[C@@H]3CC[C@@]2(C)[C@@H]1C/C=C1/C(=O)OC[C@H]1O [Example 9, (S,E)-3-(2-((3R,4aR,6aS,7R,10aS,10bR)-6a,10b-dimethyl-8-methylene-3-oxidodecahydro-1H-naphtho[2,1-d][1,3,2]dioxathiin-7-yl)ethylidene)-4-hydroxydihydrofuran-2(3H)-one] | 500 to 2000 |  | 
6 | C=C1CC[C@@H]2[C@@H](C)[C@](C)(O)CC[C@@]2(C)[C@@H]1C/C=C1/C(=O)OC[C@H]1O [Example 4, (S,E)-4-hydroxy-3-(2-((1R,4aR,5R,6R,8aR)-6-hydroxy-5,6,8a-trimethyl-2-methylenedecahydronaphthalen-1-yl)ethylidene)dihydrofuran-2(3H)-one] | < 500 | > 100 | 
7 | CC(=O)N[C@@H]1COC(=O)/C1=C\C[C@H]1C2(CC[C@H]3C(C)(C)CCC[C@@]31C)CC2 [Example 27, N—((S,Z)-5-oxo-4-(2-((1′S,4a′S,8a′S)-5′,5′,8a′-trimethyloctahydro-1′H-spiro[cyclopropane-1,2′-naphthalen]-1′-yl)ethylidene)tetrahydrofuran-3-yl)acetamide] |  | 30 to 50 | 
8 | C=C1CC[C@@H]2[C@]3(C)COS(=O)O[C@@H]3CC[C@@]2(C)[C@@H]1C/C=C1/C(=O)OC[C@H]1NC=O (single isomer, unassigned) [Example 20] | 500 to 2000 | > 100 | 
9 | C=C1CC[C@@H]2[C@@H](C)[C@@](O)(C(F)(F)F)CC[C@@]2(C)[C@@H]1C/C=C1/C(=O)OC[C@H]1O [Example 42B, (S,E)-4-hydroxy-3-(2-((1R,4aR,5R,6R,8aR)-6-hydroxy-5,8a-dimethyl-2-methylene-6-(trifluoromethyl)decahydronaphthalen-1-yl)ethylidene)dihydrofuran-2(3H)-one] | < 500 |  | 
10 | C=C1CC[C@H]2[C@@](C)(CC[C@](C)(O)[C@@]2(C)CO)[C@@H]1C/C=C1/C(=O)OC[C@H]1O [Example 6, (S,E)-4-hydroxy-3-(2-((1R,4aS,5R,6S,8a5)-6-hydroxy-5-(hydroxymethyl)-5,6,8a-trimethyl-2-methylenedecahydronaphthalen-1-yl)ethylidene)dihydrofuran-2(3H)-one] |  | 51 to 100 | 
11 | C=C1CC[C@@H]2[C@@H](C)[C@H](O)CC[C@@]2(C)[C@@H]1C/C=C1/C(=O)OC[C@H]1O [Example 2, (S,E)-4-hydroxy-3-(2-((1R,4aR,5R,6R,8aR)-6-hydroxy-5,8a-dimethyl-2-methylenedecahydronaphthalen-1-yl)ethylidene)dihydrofuran-2(3H)-one] | < 500 | > 100 | 
12 | C=C1CC[C@@H]2[C@]3(C)COS(=O)O[C@@H]3CC[C@@]2(C)[C@@H]1C/C=C1/C(=O)OCC1NC(=O)CO (single isomer, unassigned) [Example 41B] | 500 to 2000 |  | 
13 | C=C1CC[C@@H]2[C@@H](C)[C@@](O)(C(F)(F)F)CC[C@@]2(C)[C@@H]1C/C=C1/C(=O)OCC1NC=O (single isomer, unassigned) [Example 43B] | < 500 |  | 
14 | C=C1CC[C@H]2[C@@](C)(CC[C@@]3(C)ON=C[C@@]23C)[C@@H]1C/C=C1/C(=O)OC[C@H]1O [Example 14, (S,E)-4-hydroxy-3-(2-((3aR,5aS,6R,9aS,9bR)-3a,5a,9b-trimethyl-7-methylene-3a,4,5,5a,6,7,8,9,9a,9b-decahydronaphtho[1,2-d]isoxazol-6-yl)ethylidene)dihydrofuran-2(3H)-one] | > 2000 | > 100 | 
15 | CO[C@@H]1CC[C@@]2(C)C(C/C=C3/C(=O)OC[C@H]3O)=C(C)CC[C@@H]2[C@H]1C [Example 18, (S,E)-4-hydroxy-3-(2-((4aR,5R,6R,8aR)-6-methoxy-2,5,8a-trimethyl-3,4,4a,5,6,7,8,8a-octahydronaphthalen-1-yl)ethylidene)dihydrofuran-2(3H)-one] |  | 30 to 50 | 
16 | CC(=O)N[C@@H]1COC(=O)/C1=C\CC[C@H]1C2(CC[C@H]3C(C)(C)CCC[C@@]31C)CC2 [Example 36, N—((S,Z)-5-oxo-4-(3-((1′S,4a′S,8a′S)-5′,5′,8a′-trimethyloctahydro-1′H-spiro[cyclopropane-1,2′-naphthalen]-1′-yl)propylidene)tetrahydrofuran-3-yl)acetamide] | > 2000 | 51 to 100 | 
17 | CC1(C)CCC[C@@]2(C)[C@H]1CCC1(CC1)[C@@H]2CC/C=C1/C(=O)OC[C@H]1NC=O [Example 33, N-((S,E)-5-oxo-4-(3-((1′S,4a′S,8a′S)-5′,5′,8a′-trimethyloctahydro-1′H-spiro[cyclopropane-1,2′-naphthalen]-1′-yl)propylidene)tetrahydrofuran-3-yl)formamide] |  | 30 to 50 | 
18 | C=C1CC[C@@H]2[C@]3(C)COS(=O)O[C@@H]3CC[C@@]2(C)[C@@H]1C/C=C1/C(=O)OCC1NC(=O)COC (stereo partly drawn) [Example 40A, N-((E)-4-(2-((4aR,6aS,7R,10aS,10bR)-6a,10b-dimethyl-8-methylene-3-oxidodecahydro-1H-naphtho[2,1-d][1,3,2]dioxathiin-7-yl)ethylidene)-5-oxotetrahydrofuran-3-yl)-2-methoxyacetamide] |  |  | activation at 10 µM [2]: 51 to 100%
19 | CC1(C)CCC[C@@]2(C)[C@H]1CCC1(CC1)[C@@H]2C/C=C1/C(=O)OC[C@H]1NC=O [Example 24, N—((S,E)-5-oxo-4-(2-((1′S,4a′S,8a′S)-5′,5′,8a′-trimethyloctahydro-1′H-spiro[cyclopropane-1,2′-naphthalen]-1′-yl)ethylidene)tetrahydrofuran-3-yl)formamide] |  | 51 to 100 | 
20 | CC1=CC[C@@H]2[C@@H](C)[C@H](O)CC[C@@]2(C)[C@@H]1C/C=C1/C(=O)OC[C@H]1O [Example 3, (S,E)-4-hydroxy-3-(2-((1R,4aR,5R,6R,8aR)-6-hydroxy-2,5,8a-trimethyl-1,4,4a,5,6,7,8,8a-octahydronaphthalen-1-yl)ethylidene)dihydrofuran-2(3H)-one] | < 500 | > 100 | 
21 | CC1(C)CCC[C@@]2(C)[C@H]1CCC1(CC1)[C@@H]2CC/C=C1\C(=O)OC[C@H]1NC=O [Example 34, N-((S,Z)-5-oxo-4-(3-((l′S,4a′S,8a′S)-5′,5′,8a′-trimethyloctahydro-1′H-spiro[cyclopropane-1,2′-naphthalen]-1′-yl)propylidene)tetrahydrofuran-3-yl)formamide] |  | 30 to 50 | 
22 | C=C1CC[C@@H]2[C@@H](C)[C@@](C)(O)CC[C@@]2(C)[C@@H]1C/C=C1/C(=O)OC[C@H]1O [Example 5, (S,E)-4-hydroxy-3-(2-((1R,4aR,5R,6S,8aR)-6-hydroxy-5,6,8a-trimethyl-2-methylenedecahydronaphthalen-1-yl)ethylidene)dihydrofuran-2(3H)-one] | < 500 | > 100 | 
23 | C=C1CC[C@@H]2[C@]3(C)COCO[C@@H]3CC[C@@]2(C)[C@@H]1C/C=C1/C(=O)OCC1NC=O (single isomer, unassigned) [Example 39A] | 500 to 2000 |  | % Activation @ 10 μM [2]: A (A: >100%)
